Assay results from the NIST ThermoML archive (doi:10.1016/j.tca.2016.03.003).
± gives the expanded uncertainty stated by the source.

How the values were obtained:
[1] = Molar enthalpy of transition or fusion; details: DSC
[2] = DSC

| Structure (SMILES) | Molar enthalpy of transition or fusion ([1]; Crystal 1) [kcal/mol] | Molar enthalpy of transition or fusion ([1]; Crystal 2) [kcal/mol] | Triple point temperature ([2]; Crystal 1) [K] | Triple point temperature ([2]; Crystal 2) [K] | Triple point temperature ([2]; Crystal 3) [K] | Triple point temperature ([2]; Crystal 4) [K] | Triple point temperature ([2]; Metastable crystal) [K] |
| --- | --- | --- | --- | --- | --- | --- | --- |
| CC(C)(C)CO [2,2-dimethyl-1-propanol] | 0.937 ± 0.115 | 0.992 ± 0.115 | 329.2 ± 1.2 | 237.5 ± 1.2 | – | – | – |
| CC(C)(C)Cl [2-chloro-2-methylpropane] | – | – | 244.4 ± 1.2 | 219.5 ± 1.2 | 217.7 ± 1.2 | 184.8 ± 1.2 | – |
| ClC(Cl)(Cl)Cl [tetrachloromethane] | – | – | 250.4 ± 1.2 | 226.1 ± 1.2 | – | – | 245.2 ± 1.2 |
